Source: PubChem BioAssay (NCI)
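1) Cells in 96-well plates. 2) Compound, 48 h, 5 concentrations. 3) Linear interpolation between surrounding doses. 4) Unreached endpoint = highest concentration. GI50 = concentration required for 50% inhibition of growth. TGI is the concentration that stops growth completely.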

Key:
Experiment in all cases: inhibition of tumour cell growth, NCI panel, 48 h
EKVX NSCLC = test system: EKVX NSCLC
KM12 colon = test system: KM12 colon
MDA-MB-231 breast = test system: MDA-MB-231 breast
NCI/ADR-RES ovarian = test system: NCI/ADR-RES ovarian
OVCAR-4 ovarian = test system: OVCAR-4 ovarian
SF-539 CNS = test system: SF-539 CNS
SK-MEL-28 melanoma = test system: SK-MEL-28 melanoma
SK-MEL-5 melanoma = test system: SK-MEL-5 melanoma
SK-OV-3 ovarian = test system: SK-OV-3 ovarian
U251 CNS = test system: U251 CNS

| SMILES | GI50 (EKVX NSCLC) [µM] | TGI (EKVX NSCLC) [µM] | GI50 (KM12 colon) [µM] | TGI (KM12 colon) [µM] | GI50 (MDA-MB-231 breast) [µM] | TGI (MDA-MB-231 breast) [µM] | GI50 (NCI/ADR-RES ovarian) [µM] | TGI (NCI/ADR-RES ovarian) [µM] | GI50 (OVCAR-4 ovarian) [µM] | TGI (OVCAR-4 ovarian) [µM] | GI50 (SF-539 CNS) [µM] | TGI (SF-539 CNS) [µM] | GI50 (SK-MEL-28 melanoma) [µM] | TGI (SK-MEL-28 melanoma) [µM] | GI50 (SK-MEL-5 melanoma) [µM] | TGI (SK-MEL-5 melanoma) [µM] | GI50 (SK-OV-3 ovarian) [µM] | TGI (SK-OV-3 ovarian) [µM] | GI50 (U251 CNS) [µM] | TGI (U251 CNS) [µM] |
| --- | --- | --- | --- | --- | --- | --- | --- | --- | --- | --- | --- | --- | --- | --- | --- | --- | --- | --- | --- | --- |
| Cn1c(-c2c(N)n(Cc3ccc(F)cc3)c3nc(C#N)c(C#N)nc23)nc2ccccc21 | 4.16 | > 50 | 2.19 | 11.2 | 5.17 | 38.5 | 7.56 | 22.5 | 2.3 | > 50 | 13.2 | > 50 | 5.65 | 29 | 2.97 | > 50 | 11 | 33.8 | 3.18 | 15 |
| CCOC(=O)c1cc(NS(=O)(=O)c2ccc(C)cc2)cc(C(=O)OCC)c1 | 31.7 | > 100 | 55.9 | > 100 | 34.9 | > 100 | 23.6 | > 100 | 21.2 | 85.5 | 49.4 | > 100 | 27 | 93.5 | 31 | > 100 | 70.7 | > 100 | 51.3 | > 100 |
| COc1ccc(Cn2cc3c(c2-c2cc(OC)c(OC)c(OC)c2)CCc2c(CO)noc2-3)cc1 | 0.644 | > 76.9 | 0.341 | 17.9 | 0.629 | 19 | 0.294 | > 57 | 4.2 | 51.6 | 0.213 | 0.658 | 4.35 | 24.5 | 0.334 | 11.9 | 0.428 | 31.1 | 0.349 | 15.5 |
| CCC1(c2ccc(N)cc2)CCC(=O)NC1=O (centres undefined) | – | > 5000 | – | > 3870 | – | > 5000 | – | 4820 | – | 4940 | – | > 5000 | – | > 5000 | – | 3670 | – | 1950 | – | > 4060 |
| COc1ccc2nc3cccc([N+](=O)[O-])c3c(NC(C)CN(C)C)c2c1 (centres undefined) | 6.96 | 34.4 | 2.18 | 6.65 | 2.23 | 10.6 | 2.92 | 13 | 2 | 4.65 | 2.66 | 6.46 | 3.05 | – | 1.18 | 2.49 | 2.62 | 9.14 | 0.371 | 2.17 |
| O=C(O)Cc1ccc(N=Nc2c(O)c(C(=O)O)cc3ccccc23)cc1 | – | > 100 | – | > 100 | – | > 100 | – | > 100 | – | > 100 | – | > 100 | – | > 100 | – | > 100 | – | > 100 | – | > 100 |
| O=C1c2c(Cl)c(Cl)c(Cl)c(Cl)c2C(=O)C2(Cl)CC=CCC12Cl (centres undefined) | 2.64 | 7.81 | 1.84 | 3.56 | 1.71 | 3.13 | 3.41 | 13.2 | 1.9 | 3.41 | 2.06 | 4.05 | 1.8 | 3.28 | 1.77 | 3.79 | 2.92 | 10.9 | 1.67 | 3.06 |
| CN(C)C=Nc1c(I)cc(I)c(CCC(=O)O)c1I | > 100 | > 100 | > 100 | > 100 | > 100 | > 100 | > 100 | > 100 | > 100 | > 100 | > 100 | > 100 | > 100 | > 100 | > 100 | > 100 | > 100 | > 100 | > 100 | > 100 |
| COC(=O)CNc1nc(N(C)O)nc(N(C)O)n1 | 3.31 | > 100 | 5.65 | > 100 | 4.16 | > 100 | 2.86 | > 100 | 2.85 | > 100 | 3.48 | > 100 | 4.53 | > 100 | 2.2 | 15.9 | 10.3 | > 100 | 2.26 | > 100 |
| COC(=O)c1oc2c(C(=O)/C=C/c3ccc(OC)cc3)c(OCCN3CCOCC3)ccc2c1C | 1.87 | 7.49 | 1.77 | 3.78 | 1.64 | 5.18 | 2.48 | > 24 | 2.48 | > 44.2 | 1.64 | 4.1 | 2.33 | 5.19 | 1.69 | 3.17 | 2.92 | 8.61 | 1.4 | 2.74 |
| CC/C=C\C[C@H](O)C/C=C1/C(=O)C=C[C@@H]1C/C=C\CCCCO | 4.22 | 18 | 2.84 | 11.5 | 3.92 | 14.9 | 3.35 | 38.4 | 3.55 | 18.7 | 2.03 | 4.55 | 2.39 | 6.87 | 1.88 | 3.78 | 5.08 | 29.2 | 3.81 | 13.4 |
